Assay results: patent publication US10709707B2, “Methods of treating ocular conditions” (Oyster Point Pharma, Inc., priority 2016, dated 2020)
Like-named read-outs stand apart in the source and are kept apart here.

Columns and labels:
[1] = system: subjects (intranasal administration); assay: Panel of compounds administered intranasally: effect on tearing and discomfort response
Protocol: (§2) A panel of twenty compounds with various receptor binding profiles, including other nicotinic acetylcholine receptor (nAchR) agonists were tested. At the onset of the experiment, 50 microliters of a 0.01 mg/mL compound formulation was administered intranasally to three subjects.

formalin test = assay: Analgesic effects, formalin test; type: in vivo, Mouse: CD-1; conditions: Compound 1 0.1, 1 and 10 mg/kg, Aspirin 100 mg/kg, Morphine 30 mg/kg; for analgesic effects after formalin injection, Day 1: po
[2] = system: subjects (intranasal administration); conditions: in vivo
Protocol: as §2

[3] = system: paclitaxel-induced neuropathy, allodynia; assay: Reversing symptoms of paclitaxel-induced neuropathy; type: in vivo, Rat; conditions: 100 mg/kg ip, 90 min before testing, Weeks 3 and 4 post-paclitaxel
behavioral sensitization = assay: CNS safety pharmacology, behavioral sensitization by motor activity; type: in vivo, Rat: Sprague-Dawley; conditions: Compound 1 3, 10, 30 mg/kg po
[4] = excretion of radioactivity in monkey; type: in vivo; conditions: for administered radioactive dose recovered in cage wash / administered radioactive dose recovered in diet debris / administered radioactive dose recovered in feces / administered radioactive dose recovered in urine / administered radioactive dose recovered, total: 168-hour period
[5] = system: cryopreserved hepatocytes; assay: 24-hour incubation in cryopreserved hepatocytes (human); type: in vitro ADME
Excerpt: (§1) In human and monkey, the primary route of metabolism was through oxidation of the pyrrolidine ring (metabolite M02) before further metabolism via dioxidation to M1 or M3. In humans, parent accounted for 37% of extracellular radioactivity, M02 was 13.9%.M1 was 4.1% and M3 was 1.1%. In monkey, parent accounted for 14.2%, M02 was 5.0%, M1 was 5.8% and M3 was 29.4%. In the rat, the primary metabolite is an N-oxide-pyrimidine derivative (M9); it accounted for 71.9% of extracellular radioactivity while parent represented only 1.4%.

[6] = metabolism in vivo after single po dose in rats; conditions: rat, 30 mg/kg
Protocol: The main metabolite in plasma and urine was M9; in plasma from 6 to 24 hours post-dose an unknown polar metabolite (M13) accounted for a significant portion of total radioactivity. In plasma, parent accounted for 11.7% of AUC0-24 total radioactivity, M9 accounted for 20.9% and M13 accounted for 15.9%. In urine (the primary route of elimination) over a 24 hours period, parent accounted for 17.8% of total radioactivity, M9 accounted for 37.7% and M13 accounted for 0.7%.

[7] = excretion of radioactivity in Sprague-Dawley rat; conditions: 30 mg/kg po
[8] = system: cryopreserved hepatocytes; assay: 24-hour incubation in cryopreserved hepatocytes (monkey); type: in vitro ADME
Excerpt: as §1

[9] = system: cryopreserved hepatocytes from rat, dog, monkey and human; assay: 24-hour incubation in cryopreserved hepatocytes, species comparison; type: in vitro ADME
Excerpt: as §1

[10] = system: cryopreserved hepatocytes; assay: 24-hour incubation in cryopreserved hepatocytes (rat); type: in vitro ADME
Excerpt: as §1

[11] = distribution studies with [14C]-Compound 1 in Long Evans and Sprague-Dawley rat; type: in vivo
Excerpt: In male and female Sprague-Dawley rats, tissue distribution appeared similar to that of the Long Evans rat.

[12] = system: STZ rat model of diabetic neuropathy; assay: Mechanical allodynia, STZ rat model of diabetic neuropathy; type: in vivo, Rat: Sprague-Dawley; conditions: insulin-treated group
[13] = 50 microliters intranasally, three subjects, 0.01 mg/mL increased logarithmically up to 10 mg/mL

Cc1cc([C@@H]2CCCN2C)on1 [ABT-418]
Causes Tearing [1, 13]: Yes | Discomfort Response [1, 13]: Moderate

CC(=O)Oc1ccccc1C(=O)O [Aspirin]
analgesic effects after formalin injection, Day 1 (formalin test): mg/kg) and Aspirin at 100 mg/kg failed

O=Cc1ccccc1 [Benzaldehyde]
Causes Tearing [1, 13]: No | Discomfort Response [1, 13]: No

CNCCc1ccccn1 [Betahistine]
Causes Tearing [1, 13]: No | Discomfort Response [1, 13]: No

CC12CCC(CC1=O)C2(C)C (stereo not drawn) [Camphor]
Causes Tearing [1, 13]: No | Discomfort Response [1, 13]: No

COc1cc(CNC(=O)CCCC/C=C/C(C)C)ccc1O [Capsaicin]
Causes Tearing [1, 13]: Yes | Discomfort Response [1, 13]: Severe

Cc1ccc(C(C)C)cc1O [Carvacrol]
Causes Tearing [1, 13]: Yes | Discomfort Response ([1]; in vivo): Severe

O=c1cccc2n1C[C@@H]1CNC[C@H]2C1 [Cytisine]
Discomfort Response [2]: Moderate | Causes Tearing ([1]; in vivo): Partial

CC[N+](CC)(CC(=O)Nc1c(C)cccc1C)Cc1ccccc1 [Denatonium]
Causes Tearing [1, 13]: No | Discomfort Response [1, 13]: No

CCOc1cc(C=O)ccc1O [Ethylvanillin]
Causes Tearing [1, 13]: No

CC12CCC(CC1)C(C)(C)O2 [Eucaliptol]
Causes Tearing [1, 13]: No | Discomfort Response [1, 13]: No

C=CCc1ccc(O)c(OC)c1 [Eugenol]
Causes Tearing [1, 13]: No | Discomfort Response [1, 13]: No

COc1ccc(/C=C2\CCCN=C2c2cccnc2)c(OC)c1 [GTS-21]
Causes Tearing [1, 13]: Yes | Discomfort Response [1, 13]: Severe

NCC1(CC(=O)O)CCCCC1 [Gabapentin, reference compound]
reversing allodynia [3]: 100 mg/kg, was effective at reversing

CC(C)=CCC/C(C)=C/CO [Geraniol]
Causes Tearing [1, 13]: No | Discomfort Response [1, 13]: No

CC1CCC(C(C)C)C(O)C1 (stereo not drawn) [Menthol]
Causes Tearing [1, 13]: No | Discomfort Response [1, 13]: No

CN1CC[C@]23c4c5ccc(O)c4O[C@H]2[C@@H](O)C=C[C@H]3[C@H]1C5 [Morphine]
analgesic activity after formalin injection, Day 7 (formalin test; once daily for 7 days po): mg/kg) persisted on Day 7. | analgesic effects after formalin injection, Day 1 (formalin test): mg/kg, po) produced a significant

CN1CCCC1c1cccnc1 (stereo not drawn) [Nicotine]
behavioral sensitization (motor activity) (behavioral sensitization): marked behavioral sensitization. | Discomfort Response [2]: Severe | Causes Tearing [1, 13]: Yes

O=C(N[C@H]1CN2CCC1CC2)c1cc2ccoc2cn1 [PHA-543613]
Causes Tearing [1, 13]: No | Discomfort Response [1, 13]: No

CC(C)=C1CC[C@@H](C)CC1=O [Pulegone]
Causes Tearing [1, 13]: No | Discomfort Response ([1]; in vivo): No

O=C(N[C@@H]1C2CCN(CC2)[C@H]1Cc1cccnc1)c1cc(F)cc(F)c1 [TC-6987]
Causes Tearing [1, 13]: No | Discomfort Response [1, 13]: No

c1cnc2cc3c(cc2n1)[C@@H]1CNC[C@H]3C1 [Varenicline]
Causes Tearing [1, 13]: Yes | Discomfort Response [1, 13]: No

C(=C\[C@H]1CCNC1)/c1cncnc1 [[^14C]-Compound 1]
time by which nearly all recovered radioactivity was eliminated ([4]; 5 mg/kg iv infusion): ≤ 24 h | administered radioactive dose recovered in cage wash ([4]; 5 mg/kg iv infusion): 7.6% | administered radioactive dose recovered in diet debris ([4]; 5 mg/kg iv infusion): 6.9% | administered radioactive dose recovered in feces ([4]; 5 mg/kg iv infusion): 7.6% | administered radioactive dose recovered in urine ([4]; 5 mg/kg iv infusion): 70.7% | administered radioactive dose recovered, total ([4]; 5 mg/kg iv infusion): 93.0% | time by which nearly all recovered radioactivity was eliminated ([4]; 10 mg/kg po): ≤ 48 h | administered radioactive dose recovered in cage wash ([4]; 10 mg/kg po): 10.2% | administered radioactive dose recovered in diet debris ([4]; 10 mg/kg po): 6.6% | administered radioactive dose recovered in feces ([4]; 10 mg/kg po): 12.8% | administered radioactive dose recovered in urine ([4]; 10 mg/kg po): 60.7% | administered radioactive dose recovered, total ([4]; 10 mg/kg po): 90.3% | share of extracellular radioactivity [5]: 37% | extent of metabolism in vivo [6]: extensively metabolized | share of AUC0-24 total radioactivity in plasma [6]: 11.7% | share of total radioactivity in urine [6]: 17.8% | time by which nearly all recovered radioactivity was eliminated [7]: ≤ 24 h | administered dose recovered in feces ([7]; 168 hour period): 10.9% | administered dose recovered in urine ([7]; 168 hour period): 77.6% | administered dose recovered, total ([7]; 168 hour period post-dose): 91.2% | share of extracellular radioactivity [8]: 14.2% | species ranking of metabolism [9]: rat>monkey>human>dog | extent of metabolism ([9]; depending on species): slightly to moderately metabolized | share of extracellular radioactivity [10]: 1.4% | tissue with highest concentration of radioactivity at final sampling time ([11]; male Long Evans rat, 1 mg/kg po, 168 hours): adrenal medulla | tissue with highest concentration of radioactivity at final sampling time ([11]; male and female Sprague-Dawley rats, 30 mg/kg po, 24 hours): adrenal medulla

insulin: insulin-treated group in the STZ rat model
significant improvement in pain sensitivity [12]: glucose levels but no
